Assay results from patent US9862690B2, “Treatment of pulmonary and other conditions” (University of Pittsburgh—of the Commonwealth System of …, priority 2013, dated 2018).

Experiments:
[1] = test system: bronchial epithelial cells, THP cells, and alveolar macrophages; assay: Cigarette smoke extract exposure of cultured cells; type: cell-based, humans and mice; conditions: pretreated 1 to 5 μM, then 10% cigarette smoke extract
Description: For further in vitro studies, bronchial epithelial cells, THP cells (obtained from American Type Culture Collection), and alveolar macrophages (isolated from bronchial lavage fluid of humans and mice) were cultured and exposed to 10% cigarette smoke extract (CSE) prepared by smoking two cigarettes into RPMI medium according to the Federal Trade Commission (FTC) protocol. In some experiments cells were pretreated with 1 to 5 μM PB141 before the cigarette smoke extract treatment. Pretreatment with PB141 decreased epithelial cell permeability, inflammatory chemokine and cytokine production, and ROS generation.

[2] = test system: PMNs; assay: PMN adhesion and transendothelial migration, cells of endotoxin-treated mice; type: in vivo; conditions: PMNs from peripheral blood of endotoxin-treated mice
Description: For additional in vitro studies, after the treatment described above alveolar macrophages were isolated from the BAL fluid and plated in DMEM+10% FBS. After 1 h, RNA was isolated and expression of the different genes was determined using real-time PCR; results were normalized to values for the housekeeping genes glyceraldehyde-3-phosphate dehydrogenase (GAPDH) and […]. […] In other experiments, PMNs were isolated from peripheral blood of endotoxin-treated mice by hetastarch exchange transfusion. PMN adhesion was assessed with the Cytoselect Leukocyte-Endothelium Adhesion Assay kit (CBA-210; Cell Biolabs) and transendothelial PMN migration was determined with the Cytoselect Leukocyte Transmigration Assay kit (CBA-212; Cell Biolabs).

[3] = test system: Nrf2; assay: Nrf2 DNA-binding activity and nuclear concentration in BEAS-2B cells; type: cell-based; conditions: different concentrations, 24 h
Description: BEAS-2B cells were treated with varying concentrations of PB141 for 24 h, after which (A) Nrf2 activity was measured or (C) nuclear Nrf2 concentration was determined by Western blotting. (B) In other experiments cells were pretreated with varying concentrations of PB141 for 1 h, then with LPS (500 ng/ml) for 6 h. Cells were then isolated and activity of NF-κB was measured.
BEAS-2B cells were cultured in Dulbecco's modified Eagle's medium (DMEM) containing 10% heat-inactivated fetal bovine serum, penicillin, and streptomycin (100 IU/ml). Monolayer cultures were treated with different concentrations of PB141 for 24 h. Cells were then isolated and the DNA-binding activity of the antioxidant transcription factor Nrf2 was determined. The nuclear concentration of Nrf2 was also determined by Western blotting. […] In some experiments monolayer cultures were deprived of serum for 24 h, pre-treated with different concentrations of PB141 for 1 h, then exposed to LPS for 6 h. Nuclear proteins were prepared and were used to quantify DNA-binding activity of the p65 subunit of NF-κB.

[4] = test system: human lung adenocarcinoma cell lines (NCI-H661, NCI-H441 and NCIH1299); assay: Proliferation (BrdU) and apoptosis (TUNEL) of NNK-treated lung adenocarcinoma cells; type: cell-based; conditions: pretreated 1 to 5 μM, then 1 μM NNK; data not shown
Description: For further in vitro studies, human lung adenocarcinoma cell lines (NCI-H661, NCI-H441 and NCIH1299) were obtained from American Type Culture Collection. Cells were treated with 1 μM NNK for 1 hr. In some experiments cells were pretreated with 1 to 5 μM PB141 before treatment with NNK. Cell proliferation was assessed by BrdU proliferation kit (Roche Applied Science). Apoptosis was assessed by TUNEL assay.

CC(=O)N[C@@H](CSC(CC(=O)CC(SC[C@H](NC(C)=O)C(=O)O)c1cnccn1)c1cnccn1)C(=O)O (stereo partly drawn) [PB141]
Inflammatory chemokine and cytokine production [1]: decreased
Phagocytic ability of mouse and human alveolar macrophages [1]: improved
ROS generation [1]: decreased
PMN adhesion [2]: decreased
Transendothelial PMN migration [2]: decreased
DNA-binding activity of Nrf2 [3]: increased both nuclear localization and DNA-binding activity of Nrf2 in a concentration-dependent manner
Nuclear localization of Nrf2 (Western blotting) [3]: increased both nuclear localization and DNA-binding activity of Nrf2 in a concentration-dependent manner
Apoptosis (TUNEL) [4]: induced apoptosis
Cell proliferation (BrdU) [4]: significantly decreased
